Non-standard residues stand in square brackets, D forms with d. No end group written: not given here. Cit = NC(=O)NCCC[C@H](N)C(=O)O
Experiments:
Assay type in all cases: binding, human
[1] = tested on: autoantibodies from patients suffering from rheumatoid arthritis (RA sera); test: ELISA of coated peptides with sera from RA patients; conditions: for Sensitivity [%] cyclic / Sensitivity [%] Linear: 318 RA sera; for Sensitivity [%] Linear: linear variant; for assessment of cyclic variants (in words): cysteine-bromoacetic acid cyclisation
Method: The most interesting peptides were synthesised in a slightly larger quantity to form a linear and a cyclic variant, and in most cases in a citrulline and arginine (=control) variant. These peptides were tested for reactivity with a series of sera from RA patients. The peptides were coated to ELISA plates and incubated with sera from RA patients. Each serum was tested in duplicate. Sera from healthy persons were used as negative control. […]
(§1) Using the above-described methods, seven XG peptide units were tested for reactivity with the 318 sera mentioned in Table 2 from patients suffering from rheumatoid arthritis. The specificity was determined with the aid of sera mentioned in Table 2 from control patients and normal donors.
(§2) In accordance with the methods described in this document, five XnonG peptide units were tested for reactivity with the same 318 sera mentioned in Table 2 from patients suffering from rheumatoid arthritis. Specificity was again determined with the aid of the sera mentioned in Table 2 from control patients and normal donors.

[2] = tested on: sera from control patients and normal donors; test: ELISA with sera from patients with other diseases and normal sera (specificity); conditions: for % positive sera: cyclic peptide; for Specificity [%] cyclic: cyclic variant; for Specificity [%] cyclic / Specificity [%] linear: control patients and normal donors of Table 2; for Specificity [%] linear: linear variant
Method: (§3) The most interesting peptides were synthesised in a slightly larger quantity to form a linear and a cyclic variant, and in most cases in a citrulline and arginine (=control) variant. These peptides were tested for reactivity with a series of sera from RA patients. The peptides were coated to ELISA plates and incubated with sera from RA patients. Each serum was tested in duplicate. Sera from healthy persons were used as negative control.
The above table represents ELISAs with sera obtained from patients suffering from RA and from patients suffering from various other autoimmune diseases. […] The arginine variant of peptide 0002-36 (R on position 0 and +2, i.e., instead of Cit in the formula) was also tested and shown to be negative with all tested RA and normal sera.
as §1, §2

[3] = tested on: XG-negative sera (RA sera comprising no XG reactive antibodies); test: ELISA of XnonG peptides with RA sera that do not react with XG peptides; conditions: for Sensitivity [%] cyclic: cyclic variant; for Sensitivity [%] cyclic / Sensitivity [%] Linear: 80 of the 318 RA sera that did not react with any XG peptide of Table 6; for Sensitivity [%] Linear: linear variant
Method: as §3
The percentages mentioned in table 8 therefore show the percentage of the sera that did comprise antibodies to XnonG peptide units but comprised no XG reactive antibodies.

[4] = ELISA with 186 RA sera, cyclic variants
[5] = XG peptide units, cyclic variant
[6] = two cohorts of RA sera, in total 318 sera
[7] = XnonG peptide units, cyclic variant

For “0002-36 (cyclic): cyclic variant of peptide 0002-36, cyclisized by the cysteine-bromoacetic acid method (HQFRF[Cit]G[Cit]SRAA; thioether (positions not given here); not fully specified (bridges); printed as H Q F R F Cit G Cit S R A A; also: cyclised by cysteine-bromoacetic acid method, no Cys in given chain, ring places not given here)”, the positive sera ([1]; ELISA with 132 RA sera) was 71%, the “positive sera (number/total)” value ([1]; ELISA with 132 RA sera) was 94/132 and the positive sera [1, 4] was 71%. The “% positive sera” value ([1]; RA sera, N=318, cyclic peptide) was 71%, the “% positive sera” value ([2]; Colitis ulcerosa sera, N=40) was 0% and the “% positive sera” value ([2]; Crohn's disease sera, N=40) was 0%. The “% positive sera” value ([2]; Infectious diseases (malaria, chlamydia, mycoplasma, etc.) sera, N=250) was 1%, the “% positive sera” value ([2]; Normal human serum, N=84) was 0% and the “% positive sera” value ([2]; Osteoarthritis sera, N=29) was 0%. For the same substance, the “% positive sera” value ([2]; PM, Polymyositis sera, N=11) was 0%, the “% positive sera” value ([2]; Prim Sjögren's syndrome sera, N=34) was 3% and the “% positive sera” value ([2]; Psoriasis sera, N=10) was 0%. The “% positive sera” value ([2]; SSc Scleroderma sera, N=10) was 0%, the “% positive sera” value ([2]; Systemic Lupus Erythematodes sera, N=24) was 0% and the “% positive sera” value ([2]; Vasculitis sera, N=30) was 0%.

For “H Q F R F Cit G Cit S R A A (HQFRF[Cit]G[Cit]SRAA) [0002-36]”, the “reactivity with RA sera (in words)” value [1] was “very satisfactory”, the “Sensitivity [%] cyclic” value [1, 5] was 71% and the “Sensitivity [%] Linear” value ([1]; XG peptide units) was 61%. For the same substance, the “assessment of cyclic variants (in words)” value ([1]; cyclic variants) was “of interest”, the “OD-values, cyclic versus linear variant” value [1, 6] was “much higher” and the “frequency of reaction, cyclic versus linear variant” value [1, 6] was “react more frequently (and better) than the linear variant”. The “Specificity [%] cyclic” value ([2]; XG peptide units) was 99% and the “Specificity [%] linear” value ([2]; XG peptide units) was 99%.

In the case of G V Y L V R Cit L Cit M M R [0218-36], the “Sensitivity [%] cyclic” value [1, 7] is reported as 70%, the “Sensitivity [%] Linear” value ([1]; XnonG peptide units) is reported as 50% and the “Sensitivity [%] cyclic” value [3] is reported as 17%. For the same substance, the “Sensitivity [%] Linear” value [3] was 17%, the “Specificity [%] cyclic” value ([2]; XnonG peptide units) was 98% and the “Specificity [%] linear” value ([2]; XnonG peptide units) was 98%.

“A R F Q M Cit H Cit R L I R (ARFQM[Cit]H[Cit]RLIR) [0107-35]” was tested, and the “Sensitivity [%] cyclic” value [1, 7] was 61%, the “Sensitivity [%] Linear” value ([1]; XnonG peptide units) was 52% and the “reacts with % of the sera that are not reactive with cyclic 0002-36” value ([3]; cyclic form) was 18%. The “Sensitivity [%] cyclic” value [3] was 18%, the “Sensitivity [%] Linear” value [3] was 17% and the “Specificity [%] cyclic” value ([2]; XnonG peptide units) was 99%. The “Specificity [%] linear” value ([2]; XnonG peptide units) was 98%.

“H Q R R T Cit G G S R A A (HQRRT[Cit]GGSRAA) [0002-31]” was tested, and the “Sensitivity [%] cyclic” value [1, 5] was 69%, the “Sensitivity [%] Linear” value ([1]; XG peptide units) was 51% and the “assessment of cyclic variants (in words)” value ([1]; cyclic variants) was “of interest”. For the same substance, the “Specificity [%] cyclic” value ([2]; XG peptide units) was 98% and the “Specificity [%] linear” value ([2]; XG peptide units) was 98%.

In the case of HQWNR[Cit]GWSRAA [0002-35], the “reactivity with RA sera (in words)” value [1] is reported as “very satisfactory”.

In the case of “H Q F R F Cit G Cit S R A A (HQFRF[Cit]G[Cit]SRAA) [0002-36 (linear)]”, the positive sera ([1]; ELISA with 132 RA sera) is reported as 61% and the “positive sera (number/total)” value ([1]; ELISA with 132 RA sera) is reported as 80/132.

GFFSA[Cit]GHRPLD [0101-7] was tested, and the “reacted with % of RA sera” value ([1]; cyclic variant, 186 RA-sera) was 45% and the “reacted with % of the sera” value ([1]; linear peptide) was 55%.

For “H Q K W R Cit G R S Cit A A (HQKWR[Cit]GRS[Cit]AA) [0002-37]”, the “Sensitivity [%] cyclic” value [1, 5] was 70%, the “Sensitivity [%] Linear” value ([1]; XG peptide units) was 60% and the “Specificity [%] cyclic” value ([2]; XG peptide units) was 98%. The “Specificity [%] linear” value ([2]; XG peptide units) was 98%.

For HQFRF[Cit]GWSRAA [0002-63], the “reactivity with RA sera (in words)” value [1] was “very satisfactory”, the “Sensitivity [%] cyclic” value [1, 5] was 71% and the “Sensitivity [%] Linear” value ([1]; XG peptide units) was 60%. For the same substance, the “assessment of cyclic variants (in words)” value ([1]; cyclic variants) was “of interest”, the “Specificity [%] cyclic” value ([2]; XG peptide units) was 98% and the “Specificity [%] linear” value ([2]; XG peptide units) was 98%.

With “A R F Q M R H Cit R L I R (ARFQMRH[Cit]RLIR) [0113-30]” the “Sensitivity [%] cyclic” value [1, 7] was 71%, the “Sensitivity [%] Linear” value ([1]; XnonG peptide units) was 49% and the “Sensitivity [%] cyclic” value [3] was 19%. The “Sensitivity [%] Linear” value [3] was 18%, the “Specificity [%] cyclic” value ([2]; XnonG peptide units) was 100% and the “Specificity [%] linear” value ([2]; XnonG peptide units) was 99%.

“K P Y T V Cit K F M R R P (KPYTV[Cit]KFMRRP) [0107-32]” was tested, and the “Sensitivity [%] cyclic” value [1, 7] was 63%, the “Sensitivity [%] Linear” value ([1]; XnonG peptide units) was 48% and the further % added ([3]; cyclic peptide, added to cyclic 0107-35) was 8%. For the same substance, the “Sensitivity [%] cyclic” value [3] was 18%, the “Sensitivity [%] Linear” value [3] was 15% and the “Specificity [%] cyclic” value ([2]; XnonG peptide units) was 98%. The “Specificity [%] linear” value ([2]; XnonG peptide units) was 98%.

For “H Q K R G Cit G W S R A A (HQKRG[Cit]GWSRAA) [0002-27]”, the “Sensitivity [%] cyclic” value [1, 5] was 71%, the “Sensitivity [%] Linear” value ([1]; XG peptide units) was 56% and the “assessment of cyclic variants (in words)” value ([1]; cyclic variants) was “of interest”. The “Specificity [%] cyclic” value ([2]; XG peptide units) was 98% and the “Specificity [%] linear” value ([2]; XG peptide units) was 98%.

In the case of HQRKW[Cit]GASRAA [0002-32], the “Sensitivity [%] cyclic” value [1, 5] is reported as 71%, the “Sensitivity [%] Linear” value ([1]; XG peptide units) is reported as 61% and the “Specificity [%] cyclic” value ([2]; XG peptide units) is reported as 98%. The “Specificity [%] linear” value ([2]; XG peptide units) was 98%.

For “Y S F V W Cit S H A R P R (YSFVW[Cit]SHARPR) [0107-45]”, the “Sensitivity [%] cyclic” value [1, 7] was 69%, the “Sensitivity [%] Linear” value ([1]; XnonG peptide units) was 51% and the “Sensitivity [%] cyclic” value [3] was 18%. The “Sensitivity [%] Linear” value [3] was 16%, the “Specificity [%] cyclic” value ([2]; XnonG peptide units) was 99% and the “Specificity [%] linear” value ([2]; XnonG peptide units) was 98%.

For “0002-63 (cyclic): cyclic variant of peptide 0002-63 (HQFRF[Cit]GWSRAA; thioether (positions not given here); also: cyclised by cysteine-bromoacetyl thioether, Cys and bromoacetyl not shown in chain)”, the positive sera [1, 4] was 71%.

For “H Q R R V Cit G W S R A A (HQRRV[Cit]GWSRAA) [0002-29]”, the “Sensitivity [%] cyclic” value [1, 5] was 70%, the “Sensitivity [%] Linear” value ([1]; XG peptide units) was 57% and the “assessment of cyclic variants (in words)” value ([1]; cyclic variants) was “of interest”. The “Specificity [%] cyclic” value ([2]; XG peptide units) was 98% and the “Specificity [%] linear” value ([2]; XG peptide units) was 98%.

In the case of “arginine variant of peptide 0002-36: R on position 0 and +2, i.e., instead of Cit in the formula; control variant (HQFRFRGRSRAA) [reference compound]”, the “reactivity with RA sera” value ([1]; all tested RA sera) is reported as “negative” and the “reactivity with normal sera” value ([2]; all tested normal sera) is reported as “negative”.

From US10119966B2, “Method of detecting auto-antibodies from patients suffering from rheumatoid arthritis, a peptide and assay kit” (STICHTING VOOR DE TECHNISCHE WETENSCHAPPEN, priority 2001, dated 2018)
